The results in this text go back to patent US11072619B2, “Pyrazole[1,5-a] pyrimidine derivatives as kinase JAK inhibitors” (CELON PHARMA S.A., priority 2017, dated 2021).

One assay has as its system TF-1 cells. The experiment in a line: TF-1 cells viability in vitro in the presence of IL-4 (JAK1/JAK3 activation). Type of assay: cell-based. The note with it: for IC50: Homo sapiens, TF-1, 20 ng/mL IL-4, 72 hours, ATPlite, read-out: JAK1,3 IL4 (EC50, inhibition of viability of TF-1 cells); for JAK2/JAK1,3 Ratio: ratio of TF-1 viability EC50 with IL3 to EC50 with IL4. The procedure: Assay for TF-1 Cells Viability In Vitro
The effects of the activity of the compounds of the invention were tested in vitro using cells viability assay described below.
Tested compounds were dissolved in 100% DMSO, and obtained stock solutions were serially diluted in OptiMEM medium (Reduced Serum Medium-Thermo Fisher Scientific). TF-1 cells (DSMZ no.: ACC 334) in culture medium (80% RPMI 1640+20% FBS) ad in the presence of 5 ng/mL IL-3 or 20 ng/mL IL-4 were deposited on 96-well plates in the volume of 90 μl per well, 10 thousands of cells per well. To a well of the 96-well plate 10 μL of the prepared 10× stock solutions of the compounds. Cells on 96-well plates were incubated with the compounds for 72 hours at 37° C., 5% CO2. Subsequently, viability of the cells was measured using ATPlite kit (Perkin Elmer). For this purpose, 50 μL of lysis buffer (mammalian cell lysis solution) were added to a well of the 96-well plate and the plate was incubated for 10 minutes at 25° C. in a plate thermo-shaker with orbital stirring at 600 rpm. Then to a well of the 96-well plate 50 μL of substrate (substrate solution) were added and incubated for 15 minutes at in dark, in a plate thermo-shaker with orbital stirring at 600 rpm. After incubation time, luminescence intensity in a well was measured using Victor×Light luminometer (Perkin Elmer, Inc.).
On the basis of luminescence intensity measurements in well containing tested compounds at various concentrations and in control wells EC50 values were determined. These values were determined with Graph Pad software v. 5.03, by fitting points of the curve using non-linear regression method. Each compound was tested in at least 6 repetitions (6 wells) on two 96-well plates, using at least 3 wells of each control.
On the technique in general: In ATP-based viability assays light output follows the ATP content of the culture.

In assay [1] the test system is TNFα secreted by lymphocytes T. The experiment in a line: Inhibition of TNFα production by lymphocytes T in vitro. Type of assay: cell-based. The note with it: Lymphocyte, 48 hours, human CD4+ lymphocytes T; for inhibition at 0.01 µM: 10 nM; for inhibition at 0.1 µM: 100 nM; for inhibition at 1 µM: 1000 nM. The procedure: Assay for Inhibition of TNFα and INFγ Production by Lymphocytes T In Vitro
The activity of the compounds of the invention was tested using in vitro assay described below.
Tested compounds were dissolved in 100% DMSO, and obtained stock solutions were serially diluted with OptiMEM medium (Reduced Serum Medium-Thermo Fisher Scientific). Lymhocytes were isolated from leukocyte top coat layer obtained from human peripheral blood. Isolation of peripheral blood mononuclear cells was performed using Ficoll-Paque+Leucosept gradient method, with lymphocytes isolation using CD4+ T Cell Isolation Kit, and activation using T Cell Activation/Expansion Kit (Miltenyi Biotec). Isolated cells in culture medium (90% RPMI 1640+10% FBS) were sived on 12-well plates at 450 μL/well, 300 thousands/well, and 50 μL of prepared 10× stock solutions of tested compounds were added. After 48 hours supernatant was collected for determination of the level of secreted cytokines. Before determination, cells were centrifuged at 1000 g, 10 min. Determination was performed with flow cytometer FACS Calibur using LEGENDplex Human Th cytokine kit. Results are presented in Table 3 as a percentage of inhibition of TNFα i INFγ cytokines secreted by lymphocytes T with reference to control cells.

One may read the inhibition as the relative decrease from the control value, in per cent. For the compound `COc1cccc(-c2cc3ncc(C(N)=O)c(N[C@@H]4CCN(c5ccc(C#N)nn5)CC4(C)C)n3n2)n1` [Example 11, (R)-7-((1-(6-Cyanopyridazin-3-yl)-3,3-dimethylpiperidin-4-yl)amino)-2-(6-methoxy-pyridin-2-yl)pyrazolo[1,5-a]pyrimidine-6-carboxamide], in the assay on TF-1 cells, the IC50 stood at 61.1 nM and the “JAK2/JAK1,3 Ratio” value was 7.4. Moreover, in assay [1], 0.01 µM produced 57.4% inhibition, the inhibition at 0.1 µM is 88.1% and the inhibition at 1 µM is 88.5%.

For the compound `CC1(C)CN(c2ccc(C#N)nn2)CC[C@H]1Nc1c(C(N)=O)cnc2cc(-c3ccc(N4CCOCC4)nc3)nn12` [Example 7, (R)-7-((1-(6-Cyanopyridazin-3-yl)-3,3-dimethylpiperidin-4-yl)amino)-2-(6-morpholinopyridin-3-yl)pyrazolo[1,5-a]pyrimidine-6-carboxamide], in the assay on TF-1 cells, the IC50 turned out to be 36.1 nM and the “JAK2/JAK1,3 Ratio” value is listed as 7.8. Besides, in assay [1], the inhibition at 0.01 µM was 60.6%, at 0.1 µM the inhibition was 76% and testing at 1 µM gave an inhibition of 98.5%.

Take `COc1ccc(-c2cc3ncc(C(N)=O)c(N[C@@H]4CCN(c5ccc(C#N)nn5)CC4(C)C)n3n2)cn1` [Example 4, (R)-7-((1-(6-Cyanopyridazin-3-yl)-3,3-dimethylpiperidin-4-yl)amino)-2-(6-methoxy-pyridin-3-yl)pyrazolo[1,5-a]pyrimidine-6-carboxamide]: in the assay with TF-1 cells, the IC50 is 69 nM and the “JAK2/JAK1,3 Ratio” value was 10.3. Moreover, in assay [1], 0.01 µM produced 57.1% inhibition, the inhibition at 0.1 µM was found to be 78.7% and the inhibition at 1 µM came out at 95.3%.

As to `Cc1cc(-c2cc3ncc(C(N)=O)c(N[C@@H]4CCN(c5ccc(C#N)nn5)CC4(C)C)n3n2)ccn1` [Example 12, (R)-7-((1-(6-Cyanopyridazin-3-yl)-3,3-dimethylpiperidin-4-yl)amino)-2-(2-methyl-pyridin-4-yl)pyrazolo[1,5-a]pyrimidine-6-carboxamide], in the assay on TF-1 cells, the IC50 is 31.1 nM and the “JAK2/JAK1,3 Ratio” value is listed as 11.6. In assay [1], this compound showed an inhibition at 0.01 µM of 76.2%, an inhibition at 0.1 µM of 75.8% and an inhibition at 1 µM of 95.4%.
